US7989657B2, “Anthranilic acid derivatives” (Hoffmann-La Roche Inc., priority 2005, dated 2011)

Legend:
[1] = target: T1, HM74A (Homo sapiens, UniProt Q8TDS4); assay: Secondary fluorescent calcium indicator assay (FLIPR); format: cell-based; settings: stable transfected HEK-293 cells expressing HM74A and chimeric G protein Gqi9; % stimulation of maximal nicotinic acid response (100 μM)
T1 construct: expressed in transfected cells; host or cells: HEK-293, stably transfected with pcDNA3.1 vectors
T1 sequence (Q8TDS4 whole entry): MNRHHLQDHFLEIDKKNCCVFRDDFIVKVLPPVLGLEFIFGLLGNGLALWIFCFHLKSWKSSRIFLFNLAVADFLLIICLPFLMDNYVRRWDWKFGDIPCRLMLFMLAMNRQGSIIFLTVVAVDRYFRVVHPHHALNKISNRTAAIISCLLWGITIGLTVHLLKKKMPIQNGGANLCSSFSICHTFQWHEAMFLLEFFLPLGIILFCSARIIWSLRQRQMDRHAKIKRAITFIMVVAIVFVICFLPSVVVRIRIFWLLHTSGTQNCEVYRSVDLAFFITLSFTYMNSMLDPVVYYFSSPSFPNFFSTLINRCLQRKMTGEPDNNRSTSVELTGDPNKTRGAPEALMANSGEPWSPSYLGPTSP
Method: Secondary Fluorescent Calcium Indicator Assay (FLIPR)
HEK-293 cells were grown in tissue culture medium (DMEM/Nut mix F12 Medium with Glutamax I (Invitrogen), containing 10% FBS) at 37° C. in a 5% CO2 atmosphere. These cells were cultured in 6-well dishes at 3×10^5 cells/well and double transfected with DNA vectors (pcDNA3.1, Invitrogen) expressing either HM74A or HM74 and the chimeric G protein Gqi9. Two days after transfection the wells were combined and plated in 150 cm^2 flasks, in the presence of 50 μg/ml Hygromycin (Invitrogen) and 500 μg/ml Geneticin (Gibco). Fourteen days after plating, colonies were picked, expanded and analyzed for expression using a functional assay (FLIPR). Stable transfected HEK-293 cells expressing either HM74A or HM74 and the chimeric G protein Gqi9 were plated at 50,000 cells/well in black 96-well plates with clear bottom (Costar) and cultured to confluency overnight in growth media (DMEM/Nut mix F12 Medium with Glutamax I (Invitrogen), containing 10% FBS) at 37° C. in a humidified cell incubator containing 5% CO2. Growth media was aspirated and replaced with 100 μl of 1×FLIPR Calcium Assay Dye (Molecular Devices) in Hank's balanced salt solution (HBSS) containing 10 mM HEPES, and […] probenecid (Sigma), for 1 hour at 37° C. Cell plates were transferred to a FLIPR unit (Molecular Devices), and 50 μl of 3× compound dilution were added. Fluorescence emissions were measured and the effects of compounds were expressed as % stimulation of maximal nicotinic acid response (100 μM). Sigmoidal curves were fitted using the XLfit3 program (ID Business Solutions Ltd. UK) and EC50 values determined.

Row | Molecule | EC50 [1] | melting point
1 | O=C(Nc1ccccc1C(=O)O)c1ccc(Oc2cccc(Cl)c2)cc1 [Example 17, 2-[4-(3-Chloro-phenoxy)-benzoylamino]-benzoic acid] | 529 nM | –
2 | O=C(Nc1ccccc1C(=O)O)c1ccc(Oc2cc(F)ccc2F)cc1 [Example 29, 2-[4-(2,5-Difluoro-phenoxy)-benzoylamino]-benzoic acid] | 101 nM | –
3 | Cc1cc(C(=O)Nc2ccccc2C(=O)O)ccc1Oc1ccccc1 [Example 30, 2-(3-Methyl-4-phenoxy-benzoylamino)-benzoic acid] | – | 123 °C
4 | 2-[4-(4-Fluoro-phenoxy)-benzoylamino]-benzoic acid [Example 2] | 1100 nM | –
